# Patent US9512114B2, “Substituted aminopyrimidine compounds and methods of use” (Calitor Sciences, LLC, priority 2013, dated 2016)
# pIC50: −log10 of the molar value.
# Experiments:
# PI3K (p120γ) (h) = PI3K (p120γ) (h) (Homo sapiens (Human), UniProt P48736); assay: PI3K (p120γ) (h) non-radioactive HTRF kinase assay; assay type: biochemical; settings: performed at Millipore UK Ltd
# Method: (§1) The above assay procedure can be used to determine the IC50 for inhibition and/or the inhibition constant, Ki.
# PI3K (p120γ) (h) [Non-Radioactive Assay]
# (§2) PI3K (p120γ) (h) is incubated in assay buffer containing 10 μM phosphatidylinositol-4, 5-bisphosphate and MgATP (concentration as required). The reaction is initiated by the addition of the MgATP mix. After incubation for 30 minutes at room temperature, the reaction is stopped by the addition of stop solution containing EDTA and biotinylated phosphatidylinositol-3,4,5-trisphosphate. Finally, detection buffer is added, which contains europium-labelled anti-GST monoclonal antibody, GST-tagged GRP1 PH domain and streptavidin-allophycocyanin. The plate is then read in timeresolved fluorescence mode and the homogenous time-resolved fluorescence (HTRF) signal is determined according to the formula HTRF=10000×(Em665 nm/Em620 nm).
# (§3) The kinase assays described herein were performed at Millipore UK Ltd, Dundee Technology Park, Dundee DD2 1SW, UK.
# [1] = Compound stability in rat liver microsomes; assay type: in vitro ADME; settings: pH 7.4; for CLint scaled at 5 μM: liver microsomes, in vivo CLint extrapolated from rat liver microsome incubation; for half-life at 5 μM: rat liver microsomes 0.5 mg protein/mL, compound 5 μM, NADPH 1.0 mM, 37° C., read-out: Rat T1/2
# Method: (§4) The LC/MS/MS system used in the analysis consists of an Agilent 1200 Series vacuum degasser, binary pump, well-plate autosampler, thermostatted column compartment, the Agilent G6430 Triple Quadrupole Mass Spectrometer with an electrosprayionization (ESI) source. Quantitative analysis was carried out using MRM mode. The parameters for MRM transitions are in the Table A.
# (§5) An Agilent XDB-C18, 2.1×30 mm, […] column was used for the analysis. 5 μL of the samples were injected. Analysis condition: The mobile phase was 0.1% formic acid in water (A) and 0.1% formic acid in methanol (B). The flow rate was 0.4 mL/min. And the gradient of Mobile phase was in the Table B.
# (§6) Alternatively, an Agilent 6330 series LC/MS/MS spectrometer equipped with G1312A binary pumps, a G1367A autosampler and a G1314C UV detector were used in the analysis. An ESI source was used on the LC/MS/MS spectrometer. The analysis was done in positive ion mode as appropriate and the MRM transition for each analyte was optimized using standard solution. A Capcell MP-C18 100×4.6 mm I.D., […] column (Phenomenex, Torrance, Calif., USA) was used during the analysis. The mobile phase was 5 mM ammonia acetate, 0.1% MeOH in water (A): 5 mM ammonia acetate, 0.1% MeOH in acetonitrile (B) (70:30, v/v). The flow rate was 0.6 mL/min. Column was maintained at ambient temperature. 20 μL of the samples were injected.
# (§7) Human or rat liver microsomes incubations were conducted in duplicate in polypropylene tubes. The typical incubation mixtures consisted of human or rat liver microsomes (0.5 mg protein/mL), compounds of interest (5 μM) and NADPH (1.0 mM) in a total volume of 200 μL potassium phosphate buffer (PBS, 100 mM, pH 7.4). Compounds were dissolved in DMSO and diluted with PBS such that the final concentration of DMSO was 0.05%. The enzymatic reactions were commenced with the addition of protein after a 3-min preincubation and incubated in a water bath open to the air at 37° C. Reactions were terminated at various time points (0, 5, 10, 15, 30, 60 min) by adding equal volume of ice-cold acetonitrile. The samples were stored at −80° C. until LC/MS/MS assays.
# (§8) The concentrations of compounds in the incubation mixtures of human or rat liver microsomes were determined by a LC/MS/MS method. The ranges of the linearity in the concentration range were determined for each tested compounds.
# (§9) A parallel incubation was performed using denatured microsomes as the negative control, and reactions were terminated at various time points (0, 15, 60 min) after incubation at 37° C.
# (§10) Dextromethorphan (70 μM) was selected as the positive control, and reactions were terminated at various time points (0, 5, 10, 15, 30, 60 min) after incubation at 37° C. Both positive and negative control samples were included in each assay to ensure the integrity of the microsomal incubation system.
# (§11) The concentrations of compounds in human or rat liver microsome incubations were plotted as a percentage of the relevant zero time point control for each reaction. The in vivo CLint were extrapolated (ref.: Naritomi, Y.; Terashita, S.; Kimura, S.; Suzuki, A.; Kagayama, A.; and Sugiyama, Y.; Prediction of human hepatic clearance from in vivo animal experiments and in vitro metabolic studies with liver microsomes from animals and humans. Drug Metab. Dispos., 2001, 29: 1316-1324).
# PI3K (p110δ/p85α) (h) = PI3K (p110δ/p85α) (h) (Homo sapiens (Human), UniProt O00329); assay: PI3K (p110δ/p85α) (h) non-radioactive HTRF kinase assay; assay type: biochemical; settings: performed at Millipore UK Ltd
# Method: as §1
# PI3K (p110δ/p85α) (h) [Non-Radioactive Assay]
# as §2, with “(p110δ/p85α)” for “(p120γ)”
# as §3
# PI3K (p110α/p85α) (h) = PI3K (p110α/p85α) (h) (Homo sapiens (Human), UniProt P42336); assay: PI3K (p110α/p85α) (h) non-radioactive HTRF kinase assay; assay type: biochemical; settings: performed at Millipore UK Ltd
# Method: as §1
# PI3K (p110α/p85α) (h) [Non-Radioactive Assay]
# as §2, with “(p110α/p85α)” for “(p120γ)”, “phosphatidylinositol 4,5-bisphosphate” for “phosphatidylinositol-4, 5-bisphosphate”, “ATP solution.” for “MgATP mix.”, “streptavidin allophycocyanin.” for “streptavidin-allophycocyanin.”
# as §3
# PI3K (p110β/p85α) (h) = PI3K (p110β/p85α) (h) (Homo sapiens (Human), UniProt P42338); assay: PI3K (p110β/p85α) (h) non-radioactive HTRF kinase assay; assay type: biochemical; settings: performed at Millipore UK Ltd
# Method: as §1
# PI3K (p110β/p85α) (h) [Non-Radioactive Assay]
# as §2, with “([…])” for “(p120γ)”
# as §3
# [2] = Compound stability in human liver microsomes; assay type: in vitro ADME; settings: pH 7.4; for CLint scaled at 5 μM: liver microsomes, in vivo CLint extrapolated from human liver microsome incubation; for half-life at 5 μM: human liver microsomes 0.5 mg protein/mL, compound 5 μM, NADPH 1.0 mM, 37° C., read-out: Human T1/2
# Method: as §4, §5, §6, §7, §8, §9, §10, §11
# [3] = Pharmacokinetic profiles in rats; assay type: in vivo, rat; settings: for Cl/F / AUC(0-t) / half-life / Vd: iv dosing 1 mg/kg; for F: oral vs iv (iv 1 mg/kg; p.o. generally 5 or 10 mg/kg); for AUC(0-t) / half-life / Vd: rat, plasma; for Vd: read-out: Vss
# Method: The compounds disclosed herein are assessed in pharmacokinetic studies in mice, rats, dogs or monkeys. The compounds are administered as a water solution, 2% HPMC+1% TWEEN®80 in water solution, 5% DMSO+5% solutol in saline, 4% MC suspension or capsule. For the intravenous administration, the animals are generally given at 1 or 2 mg/kg dose. For the oral (p.o.) dosing, mice and rats are generally given 5 or 10 mg/kg dose, and dogs and monkeys are generally given 10 mg/kg dose. The blood samples (0.3 mL) are drawn at 0.25, 0.5, 1.0, 2.0, 3.0, 4.0, 6.0, 8.0, 12 and 24 h time points or 0.083, 0.25, 0.5, 1.0, 2.0, 4.0, 6.0, 8.0 and 24 h time points and centrifuged at 3,000 or 4000 rpm for 2 to 10 min. The plasma solutions are collected, stored at −20° C. or −70° C. until analyzed by LC/MS/MS as described above.
# Sequence of PI3K (p110α/p85α) (h) (P42336 whole entry): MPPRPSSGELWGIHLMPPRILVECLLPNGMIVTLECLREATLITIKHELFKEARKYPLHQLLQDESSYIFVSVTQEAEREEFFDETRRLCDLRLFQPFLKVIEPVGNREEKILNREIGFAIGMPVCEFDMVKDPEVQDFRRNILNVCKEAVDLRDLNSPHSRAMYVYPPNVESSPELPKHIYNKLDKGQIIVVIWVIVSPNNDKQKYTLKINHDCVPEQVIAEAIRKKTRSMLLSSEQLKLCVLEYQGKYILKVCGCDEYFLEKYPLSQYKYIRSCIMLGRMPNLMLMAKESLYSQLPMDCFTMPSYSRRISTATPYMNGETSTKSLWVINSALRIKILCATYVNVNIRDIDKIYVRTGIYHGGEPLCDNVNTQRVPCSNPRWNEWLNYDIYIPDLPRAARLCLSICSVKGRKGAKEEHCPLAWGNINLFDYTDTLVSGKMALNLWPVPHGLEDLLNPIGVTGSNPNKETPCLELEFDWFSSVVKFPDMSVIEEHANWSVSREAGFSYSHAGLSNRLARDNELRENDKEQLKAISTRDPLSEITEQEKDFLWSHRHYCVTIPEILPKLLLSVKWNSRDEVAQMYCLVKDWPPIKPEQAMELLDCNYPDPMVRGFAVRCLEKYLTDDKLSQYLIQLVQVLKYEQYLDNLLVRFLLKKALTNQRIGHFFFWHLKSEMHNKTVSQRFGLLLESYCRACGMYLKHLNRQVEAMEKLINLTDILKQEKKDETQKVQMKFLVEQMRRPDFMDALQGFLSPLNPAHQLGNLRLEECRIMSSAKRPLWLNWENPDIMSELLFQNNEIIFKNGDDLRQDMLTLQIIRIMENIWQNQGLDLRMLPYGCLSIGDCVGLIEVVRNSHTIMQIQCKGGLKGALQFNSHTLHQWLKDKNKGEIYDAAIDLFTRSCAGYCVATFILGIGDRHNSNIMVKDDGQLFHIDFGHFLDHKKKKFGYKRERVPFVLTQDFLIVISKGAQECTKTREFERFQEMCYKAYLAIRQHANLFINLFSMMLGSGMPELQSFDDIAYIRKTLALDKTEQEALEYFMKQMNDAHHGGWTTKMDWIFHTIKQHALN
# Sequence of PI3K (p110α/p85α) (h) (P27986 whole entry partner): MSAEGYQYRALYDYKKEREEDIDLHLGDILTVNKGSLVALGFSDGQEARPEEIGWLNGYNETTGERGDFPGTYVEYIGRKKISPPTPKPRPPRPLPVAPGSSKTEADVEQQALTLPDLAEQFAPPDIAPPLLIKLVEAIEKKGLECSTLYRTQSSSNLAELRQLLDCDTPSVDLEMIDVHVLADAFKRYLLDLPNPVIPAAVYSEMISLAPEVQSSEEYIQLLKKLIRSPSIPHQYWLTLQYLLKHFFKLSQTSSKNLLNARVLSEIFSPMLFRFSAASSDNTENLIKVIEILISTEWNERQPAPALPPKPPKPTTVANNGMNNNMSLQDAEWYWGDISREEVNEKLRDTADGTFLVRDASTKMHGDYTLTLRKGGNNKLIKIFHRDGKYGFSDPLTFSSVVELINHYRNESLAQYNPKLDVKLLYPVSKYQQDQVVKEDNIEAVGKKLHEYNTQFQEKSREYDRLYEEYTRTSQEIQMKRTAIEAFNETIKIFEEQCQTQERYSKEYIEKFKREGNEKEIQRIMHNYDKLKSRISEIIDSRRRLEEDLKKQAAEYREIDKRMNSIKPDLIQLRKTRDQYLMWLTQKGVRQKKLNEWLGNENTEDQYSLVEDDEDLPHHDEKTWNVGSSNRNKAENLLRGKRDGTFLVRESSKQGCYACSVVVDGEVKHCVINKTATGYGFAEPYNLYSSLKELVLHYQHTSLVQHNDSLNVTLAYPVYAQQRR
# Sequence of PI3K (p110δ/p85α) (h) (O00329 whole entry): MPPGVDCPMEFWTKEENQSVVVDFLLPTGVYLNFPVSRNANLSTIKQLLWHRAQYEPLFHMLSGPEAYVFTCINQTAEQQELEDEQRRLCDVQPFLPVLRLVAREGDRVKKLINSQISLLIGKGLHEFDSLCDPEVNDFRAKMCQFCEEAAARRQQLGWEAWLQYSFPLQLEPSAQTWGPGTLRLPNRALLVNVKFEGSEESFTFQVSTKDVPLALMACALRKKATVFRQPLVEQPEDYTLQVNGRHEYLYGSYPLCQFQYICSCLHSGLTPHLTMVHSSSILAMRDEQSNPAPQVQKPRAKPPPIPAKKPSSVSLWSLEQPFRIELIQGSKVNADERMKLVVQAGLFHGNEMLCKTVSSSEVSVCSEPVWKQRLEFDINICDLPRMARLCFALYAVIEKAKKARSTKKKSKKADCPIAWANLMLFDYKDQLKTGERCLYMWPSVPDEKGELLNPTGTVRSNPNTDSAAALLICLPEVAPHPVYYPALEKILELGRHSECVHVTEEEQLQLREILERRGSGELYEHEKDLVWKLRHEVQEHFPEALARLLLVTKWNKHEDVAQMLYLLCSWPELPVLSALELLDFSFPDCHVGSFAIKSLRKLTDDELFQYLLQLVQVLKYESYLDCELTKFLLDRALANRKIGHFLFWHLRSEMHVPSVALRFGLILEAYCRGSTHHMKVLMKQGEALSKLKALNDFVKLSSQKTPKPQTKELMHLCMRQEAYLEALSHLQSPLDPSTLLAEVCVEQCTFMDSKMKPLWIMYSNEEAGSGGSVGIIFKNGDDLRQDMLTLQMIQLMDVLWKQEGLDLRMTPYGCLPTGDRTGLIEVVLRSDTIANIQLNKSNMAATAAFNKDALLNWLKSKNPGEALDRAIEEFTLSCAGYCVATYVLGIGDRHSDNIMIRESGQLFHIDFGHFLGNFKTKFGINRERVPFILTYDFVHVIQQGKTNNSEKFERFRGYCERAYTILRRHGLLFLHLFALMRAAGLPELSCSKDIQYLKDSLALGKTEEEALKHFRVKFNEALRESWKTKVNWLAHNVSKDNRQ
# Sequence of PI3K (p110δ/p85α) (h) (P27986 whole entry partner): as the sequence (P27986 whole entry partner) above
# Sequence of PI3K (p120γ) (h) (P48736 whole entry): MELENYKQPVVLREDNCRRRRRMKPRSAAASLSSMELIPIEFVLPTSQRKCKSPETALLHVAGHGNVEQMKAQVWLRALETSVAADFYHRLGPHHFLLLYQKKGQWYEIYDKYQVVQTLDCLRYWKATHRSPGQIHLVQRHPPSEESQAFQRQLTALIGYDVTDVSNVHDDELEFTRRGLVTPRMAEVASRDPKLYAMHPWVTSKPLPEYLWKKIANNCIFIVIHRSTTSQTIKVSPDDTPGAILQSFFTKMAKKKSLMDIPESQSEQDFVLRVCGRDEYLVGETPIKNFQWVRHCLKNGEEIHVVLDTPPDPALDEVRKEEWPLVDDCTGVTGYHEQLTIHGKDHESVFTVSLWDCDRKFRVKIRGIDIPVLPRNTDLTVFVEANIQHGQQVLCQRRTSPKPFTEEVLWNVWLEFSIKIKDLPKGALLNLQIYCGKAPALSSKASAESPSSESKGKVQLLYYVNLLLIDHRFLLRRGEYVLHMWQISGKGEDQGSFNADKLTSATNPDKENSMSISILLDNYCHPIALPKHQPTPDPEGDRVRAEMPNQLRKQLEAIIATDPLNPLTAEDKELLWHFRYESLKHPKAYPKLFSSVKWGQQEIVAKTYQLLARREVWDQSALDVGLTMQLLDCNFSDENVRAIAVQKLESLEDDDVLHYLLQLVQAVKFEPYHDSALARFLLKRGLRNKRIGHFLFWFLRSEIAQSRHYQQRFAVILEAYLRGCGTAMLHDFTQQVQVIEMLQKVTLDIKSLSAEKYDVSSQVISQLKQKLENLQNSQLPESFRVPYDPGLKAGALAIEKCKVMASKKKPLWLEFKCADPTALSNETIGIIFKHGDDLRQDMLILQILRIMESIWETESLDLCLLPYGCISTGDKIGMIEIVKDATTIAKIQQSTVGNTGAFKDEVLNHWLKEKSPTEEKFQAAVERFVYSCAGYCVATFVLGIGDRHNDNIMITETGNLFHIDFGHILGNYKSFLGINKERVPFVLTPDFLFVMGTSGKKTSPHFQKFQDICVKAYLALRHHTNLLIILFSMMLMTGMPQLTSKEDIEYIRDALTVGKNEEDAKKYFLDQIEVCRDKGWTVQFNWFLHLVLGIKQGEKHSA
# Sequence of PI3K (p110β/p85α) (h) (P42338 whole entry): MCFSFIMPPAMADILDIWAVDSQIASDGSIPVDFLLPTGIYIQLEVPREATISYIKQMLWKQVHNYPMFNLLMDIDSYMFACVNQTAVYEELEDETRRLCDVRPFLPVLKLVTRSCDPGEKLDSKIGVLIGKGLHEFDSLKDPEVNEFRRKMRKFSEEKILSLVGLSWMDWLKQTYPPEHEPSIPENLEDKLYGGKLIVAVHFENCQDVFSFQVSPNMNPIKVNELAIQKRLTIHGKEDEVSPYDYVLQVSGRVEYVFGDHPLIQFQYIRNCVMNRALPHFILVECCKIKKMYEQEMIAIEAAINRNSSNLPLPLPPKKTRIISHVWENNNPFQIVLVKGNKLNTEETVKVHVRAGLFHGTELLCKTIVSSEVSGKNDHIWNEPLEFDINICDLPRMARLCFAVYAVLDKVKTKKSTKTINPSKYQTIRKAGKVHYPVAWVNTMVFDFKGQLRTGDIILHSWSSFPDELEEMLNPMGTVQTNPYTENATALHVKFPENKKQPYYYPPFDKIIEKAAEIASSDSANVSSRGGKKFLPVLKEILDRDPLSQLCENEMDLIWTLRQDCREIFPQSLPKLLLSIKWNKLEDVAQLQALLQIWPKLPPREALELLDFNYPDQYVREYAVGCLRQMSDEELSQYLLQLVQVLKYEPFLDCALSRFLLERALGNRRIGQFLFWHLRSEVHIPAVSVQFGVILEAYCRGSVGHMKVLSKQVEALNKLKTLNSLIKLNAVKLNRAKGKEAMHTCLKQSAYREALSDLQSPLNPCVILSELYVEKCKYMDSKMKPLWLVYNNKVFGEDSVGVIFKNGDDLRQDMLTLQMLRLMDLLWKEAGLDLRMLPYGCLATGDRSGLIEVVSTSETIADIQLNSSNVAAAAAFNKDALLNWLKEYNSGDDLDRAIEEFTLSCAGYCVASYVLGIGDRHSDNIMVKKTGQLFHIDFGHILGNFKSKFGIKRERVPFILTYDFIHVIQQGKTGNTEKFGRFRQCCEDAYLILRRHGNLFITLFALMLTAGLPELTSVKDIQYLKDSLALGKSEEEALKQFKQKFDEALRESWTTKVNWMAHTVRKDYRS
# Sequence of PI3K (p110β/p85α) (h) (P27986 whole entry partner): as the sequence (P27986 whole entry partner) above
SMILES,pIC50 (PI3K (p120γ) (h)),CLint scaled at 5 μM [1],half-life at 5 μM [1],pIC50 (PI3K (p110δ/p85α) (h)),pIC50 (PI3K (p110α/p85α) (h)),pIC50 (PI3K (p110β/p85α) (h)),CLint scaled at 5 μM [2],half-life at 5 μM [2],Cl/F [3],F [3],AUC(0-t) [3],half-life [3],Vd [3]
"Cc1noc(-c2c(N)ncnc2N[C@@H](C)c2cc3cccc(-c4cnn(C)c4)c3c(=O)n2-c2ccccc2)n1 [Ex. 28, (S)-3-(1-((6-amino-5-(3-methyl-1,2,4-oxadiazol-5-yl)pyrimidin-4-yl)amino)ethyl)-8-(1-methyl-1H-pyrazol-4-yl)-2-phenylisoquinolin-1(2H)-one]",6.98,72.7 mL/min/kg,34.2 min,8.05,6.65,5.93,64.1 mL/min/kg,27.1 min,–,–,–,–,–
"Cc1nc(-c2c(N)ncnc2N[C@@H](C)c2cc3cccc(Cl)c3c(=O)n2C2CC2)no1 [Ex. 11, (S)-3-(1-((6-amino-5-(5-methyl-1,2,4-oxadiazol-3-yl)pyrimidin-4-yl)amino)ethyl)-8-chloro-2-cyclopropylisoquinolin-1(2H)-one]",6.43,317 mL/min/kg,7.83 min,7.89,5.83,–,545 mL/min/kg,3.19 min,–,–,–,–,–
"CC[C@H](Nc1ncnc(N)c1-c1nnc(C)o1)c1cc2cccc(Cl)c2c(=O)n1-c1ccccc1 [Ex. 5, (S)-3-(1-((6-amino-5-(5-methyl-1,3,4-oxadiazol-2-yl)pyrimidin-4-yl)amino)propyl)-8-chloro-2-phenylisoquinolin-1(2H)-one]",6.41,108 mL/min/kg,23.1 min,–,< 5.52,6.59,29.2 mL/min/kg,59.6 min,52.2 mL/min/kg,106.3%,320 ng·h/mL,31.8 min,1.87 L/kg
"Cc1noc(-c2c(N)ncnc2N[C@@H](C)c2cc3cccc(Cl)c3c(=O)n2C2CC2)n1 [Ex. 24, (S)-3-(1-((6-amino-5-(3-methyl-1,2,4-oxadiazol-5-yl)pyrimidin-4-yl)amino)ethyl)-8-chloro-2-cyclopropylisoquinolin-1(2H)-one]",7.82,190 mL/min/kg,13.1 min,8.52,6.51,–,114 mL/min/kg,15.3 min,120 mL/min/kg,12.28%,139 ng·h/mL,45 min,5.46 L/kg
"CC[C@H](Nc1ncnc(N)c1-c1noc(C)n1)c1cc2cccc(F)c2c(=O)n1-c1ccccc1 [Ex. 18, (S)-3-(1-((6-amino-5-(5-methyl-1,2,4-oxadiazol-3-yl)pyrimidin-4-yl)amino)propyl)-8-fluoro-2-phenylisoquinolin-1(2H)-one]",–,330 mL/min/kg,7.53 min,7.49,–,–,226 mL/min/kg,7.7 min,51.7 mL/min/kg,38.15%,323 ng·h/mL,46.5 min,1.66 L/kg
"C[C@H](Nc1ncnc(N)c1-c1ncn(C)n1)c1cc2cccc(Cl)c2c(=O)n1C1CC1 [Ex. 16, (S)-3-(1-((6-amino-5-(1-methyl-1H-1,2,4-triazol-3-yl)pyrimidin-4-yl)amino)ethyl)-8-chloro-2-cyclopropylisoquinolin-1(2H)-one]",–,173 mL/min/kg,14.3 min,6.72,–,–,219 mL/min/kg,7.92 min,89.3 mL/min/kg,11.44%,186 ng·h/mL,36.6 min,2.94 L/kg
"CC[C@H](Nc1ncnc(N)c1-c1nc(C)no1)c1cc2cccc(Cl)c2c(=O)n1C1CC1 [Ex. 7, (S)-3-(1-((6-amino-5-(3-methyl-1,2,4-oxadiazol-5-yl)pyrimidin-4-yl)amino)propyl)-8-chloro-2-ccyclopropylisoquinolin-1(2H)-one]",–,250 mL/min/kg,9.92 min,8.40,–,–,147 mL/min/kg,11.8 min,54.3 mL/min/kg,42.95%,307 ng·h/mL,138 min,7.96 L/kg
